Assays:
Assay in all cases: relative viability (nuclei count vs DMSO), 5 days (fraction); higher = more cells survive
Nelarabine + OSI-027 = compound: COc1nc(N)nc2c1ncn2[C@@H]1O[C@H](CO)[C@@H](O)[C@@H]1O [Nelarabine] + COc1cccc2cc(-c3nc([C@H]4CC[C@H](C(=O)O)CC4)n4ncnc(N)c34)[nH]c12 [OSI-027] (partner 0.5 µM)
Summary of the method: (§1)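 Nuclei were stained with Hoechst during a one-step fixation (final 0.05% Triton X-100, 1% formaldehyde, 1 ug/ml Hoechst) carried out 5 days after dosing, then counted on 4× images. The cells, lung cancer lines in 1536-well plates, had been dosed by pin tool the day after seeding with one drug alone or a fixed anchor-drug dose plus five library-drug doses (not always all listed) in √10 steps. Relative viability is the nuclei count in treated wells divided by that in vehicle wells, and each value is the median of duplicate plates.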

Adavosertib + Pemetrexed = compound: C=CCn1c(=O)c2cnc(Nc3ccc(N4CCN(C)CC4)cc3)nc2n1-c1cccc(C(C)(C)O)n1 [Adavosertib] + Nc1nc2[nH]cc(CCc3ccc(C(=O)N[C@@H](CCC(=O)O)C(=O)O)cc3)c2c(=O)[nH]1 [Pemetrexed] (partner 0.2 µM)
Summary of the method: as §1

Nelarabine + Decitabine = compound: COc1nc(N)nc2c1ncn2[C@@H]1O[C@H](CO)[C@@H](O)[C@@H]1O [Nelarabine] + Nc1ncn([C@H]2C[C@H](O)[C@@H](CO)O2)c(=O)n1 [Decitabine] (partner 2 µM)
Summary of the method: as §1

Nelarabine + Olaparib = compound: COc1nc(N)nc2c1ncn2[C@@H]1O[C@H](CO)[C@@H](O)[C@@H]1O [Nelarabine] + O=C(c1cc(Cc2n[nH]c(=O)c3ccccc23)ccc1F)N1CCN(C(=O)C2CC2)CC1 [Olaparib] (partner 8 µM)
Summary of the method: as §1

Cell Line | relative viability (Nelarabine + OSI-027; first compound 0.01 µM) | relative viability (Nelarabine + OSI-027; first compound 0.03162 µM) | relative viability (Nelarabine + OSI-027; first compound 0.1 µM) | relative viability (Nelarabine + OSI-027; first compound 0.3162 µM) | relative viability (Nelarabine + OSI-027; first compound 1 µM) | relative viability (Adavosertib + Pemetrexed; first compound 0.01 µM) | relative viability (Adavosertib + Pemetrexed; first compound 0.03162 µM) | relative viability (Adavosertib + Pemetrexed; first compound 0.1 µM) | relative viability (Adavosertib + Pemetrexed; first compound 0.3162 µM) | relative viability (Nelarabine + Decitabine; first compound 0.01 µM) | relative viability (Nelarabine + Decitabine; first compound 0.03162 µM) | relative viability (Nelarabine + Decitabine; first compound 0.1 µM) | relative viability (Nelarabine + Decitabine; first compound 0.3162 µM) | relative viability (Nelarabine + Decitabine; first compound 1 µM) | relative viability (Nelarabine + Olaparib; first compound 0.01 µM) | relative viability (Nelarabine + Olaparib; first compound 0.03162 µM) | relative viability (Nelarabine + Olaparib; first compound 0.1 µM) | relative viability (Nelarabine + Olaparib; first compound 0.3162 µM) | relative viability (Nelarabine + Olaparib; first compound 1 µM)
NCI-H2087 | 0.568 | 0.639 | 0.489 | 0.676 | 0.517 | 0.644 | 0.634 | 0.67 | 0.644 | 0.248 | 0.28 | 0.309 | 0.335 | 0.3 | 0.713 | 0.421 | 0.73 | 0.68 | 0.72
HCC-827 | 0.741 | 0.738 | 0.76 | 0.595 | 0.65 | 0.283 | 0.223 | 0.284 | 0.245 | 0.24 | 0.315 | 0.306 | 0.355 | 0.289 | 0.673 | 0.622 | 0.571 | 0.571 | 0.463
NCI-H520 | 0.321 | 0.233 | 0.233 | 0.395 | 0.264 | 0.762 | 0.686 | 0.616 | 0.297 | 0.566 | 0.44 | 0.512 | 0.617 | 0.485 | 0.29 | 0.29 | 0.343 | 0.366 | 0.363
NCI-H1734 | 0.759 | 0.609 | 0.547 | 0.582 | 0.619 | 0.409 | 0.39 | 0.325 | 0.323 | 0.551 | 0.458 | 0.491 | 0.486 | 0.499 | 0.688 | 0.597 | 0.689 | 0.61 | 0.654
NCI-H2009 | 0.767 | 0.643 | 0.546 | 0.696 | 0.71 | 1.03 | 0.987 | 1.04 | 0.775 | 0.412 | 0.331 | 0.398 | 0.447 | 0.385 | 0.746 | 0.607 | 0.834 | 0.725 | 0.855
NCI-H1993 | 0.596 | 0.502 | 0.551 | 0.567 | 0.585 | 0.57 | 0.517 | 0.608 | 0.629 | 0.667 | 0.507 | 0.526 | 0.578 | 0.65 | 1.19 | 0.993 | 0.865 | 0.939 | 0.984

— the supplement of paper PMC10307832
